Experimental data: PubChem BioAssay AID256 (DTP/NCI, 2004)
Where “and” joins values, the source holds several entries; their conditions need not be identical. Identical values can stand only once. Toxic doses and inconclusive results are not listed.

Tested on: CD2F1 mice, L1210 leukemia ip, survival T/C
Experiment: NCI In Vivo Anticancer Drug Screen. Data for tumor model L1210 Leukemia (intraperitoneal) in CD2F1 (CDF1) mice
Conditions: higher = longer survival
Outline: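 Tumor-bearing mice (transplanted tumor) were split into treated and vehicle control groups, and the measured endpoint of each treated group was divided by that of its vehicle controls.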

With `COc1cc2c(c(OC)c1OC)-c1ccc(OC)c(=O)cc1[C@@H](NC(C)=O)CC2` the T/C (endpoint: mean survival time, dose: 0.02 mg/kg/injection, schedule: Q01DX009 (ip), vehicle: saline) was 117 % of control, the T/C (endpoint: mean survival time, dose: 0.03 mg/kg/injection, schedule: Q01DX009 (ip), vehicle: water) was 93 % of control and the T/C (endpoint: mean survival time, dose: 0.04 mg/kg/injection, schedule: Q01DX009 (ip), vehicle: saline) was 103 % of control. The T/C (endpoint: mean survival time, dose: 0.05 mg/kg/injection, schedule: Q01DX009 (ip), vehicle: saline) was 102 % of control, the T/C (endpoint: mean survival time, dose: 0.06 mg/kg/injection, schedule: Q01DX005 (ip), vehicle: Klucel (hydroxypropylcellulose) (HPC)) was 103 % of control and the T/C (endpoint: mean survival time, dose: 0.08 mg/kg/injection, schedule: Q01DX009 (ip), vehicle: saline) was 105 % of control. For the same compound, the T/C (endpoint: mean survival time, dose: 0.1 mg/kg/injection, schedule: Q01DX009 (ip), vehicle: saline) was 100 % of control, the T/C (endpoint: mean survival time, dose: 0.13 mg/kg/injection, schedule: Q01DX005 (ip), vehicle: Klucel (hydroxypropylcellulose) (HPC)) was 97 % of control and the T/C (endpoint: mean survival time, dose: 0.13 mg/kg/injection, schedule: Q01DX005 (ip), vehicle: water) was 117 % of control. The T/C (endpoint: mean survival time, dose: 0.16 mg/kg/injection, schedule: Q01DX009 (ip), vehicle: saline) was 111 % of control, the T/C (endpoint: mean survival time, dose: 0.19 mg/kg/injection, schedule: Q01DX009 (ip), vehicle: saline) was 104 % of control and the T/C (endpoint: mean survival time, dose: 0.25 mg/kg/injection, schedule: Q01DX005 (ip), vehicle: Klucel (hydroxypropylcellulose) (HPC)) was 114 % of control. The T/C (endpoint: mean survival time, dose: 0.25 mg/kg/injection, schedule: Q01DX005 (ip), vehicle: water) was 122 % of control, the T/C (endpoint: mean survival time, dose: 0.35 mg/kg/injection, schedule: Q04DX004 (ip), vehicle: saline) was 111 % of control and the T/C (endpoint: mean survival time, dose: 0.38 mg/kg/injection, schedule: Q01DX009 (ip), vehicle: saline) was 111 % of control. The T/C (endpoint: mean survival time, dose: 0.5 mg/kg/injection, schedule: Q01DX005 (ip), vehicle: Klucel (hydroxypropylcellulose) (HPC)) was 123 % of control, the T/C (endpoint: mean survival time, dose: 0.54 mg/kg/injection, schedule: Q04DX004 (ip), vehicle: saline) was 112 % of control and the T/C (endpoint: mean survival time, dose: 0.75 mg/kg/injection, schedule: Q01DX009 (ip), vehicle: saline) was 118 % of control and 111 % of control. The T/C (endpoint: mean survival time, dose: 0.8 mg/kg/injection, schedule: Q04DX004 (ip), vehicle: saline) was 115 % of control, the T/C (endpoint: mean survival time, dose: 1.2 mg/kg/injection, schedule: Q04DX004 (ip), vehicle: saline) was 122 % of control and the T/C (endpoint: median survival time, dose: 0.02 mg/kg/injection, schedule: Q01DX009 (ip), vehicle: saline) was 88 % of control and 100 % of control. For the same compound, the T/C (endpoint: median survival time, dose: 0.04 mg/kg/injection, schedule: Q01DX009 (ip), vehicle: saline) was 100 % of control, the T/C (endpoint: median survival time, dose: 0.08 mg/kg/injection, schedule: Q01DX009 (ip), vehicle: saline) was 100 % of control and 105 % of control and the T/C (endpoint: median survival time, dose: 0.13 mg/kg/injection, schedule: Q01DX005 (ip), vehicle: saline) was 111 % of control. The T/C (endpoint: median survival time, dose: 0.16 mg/kg/injection, schedule: Q01DX009 (ip), vehicle: saline) was 114 % of control and 111 % of control, the T/C (endpoint: median survival time, dose: 0.25 mg/kg/injection, schedule: Q01DX005 (ip), vehicle: saline) was 123 % of control and the T/C (endpoint: median survival time, dose: 1.0 mg/kg/injection, schedule: Q01DX005 (ip), vehicle: saline) was 164 % of control. For the same compound, the T/C (endpoint: median survival time, dose: 2.0 mg/kg/injection, schedule: Q01DX005 (ip), vehicle: saline) was 111 % of control.
In the case of `CCOC(=O)C1(c2ccccc2)C(=O)Oc2ccccc21` (configuration not stated), the T/C (endpoint: mean survival time, dose: 12.5 mg/kg/injection, schedule: Q01DX009 (ip), vehicle: saline with Tween-80) is reported as 98 % of control, the T/C (endpoint: mean survival time, dose: 25.0 mg/kg/injection, schedule: Q01DX009 (ip), vehicle: saline with Tween-80) is reported as 94 % of control and 96 % of control and the T/C (endpoint: mean survival time, dose: 50.0 mg/kg/injection, schedule: Q01DX009 (ip), vehicle: saline with Tween-80) is reported as 89 % of control and 104 % of control. For the same compound, the T/C (endpoint: mean survival time, dose: 100.0 mg/kg/injection, schedule: Q01DX009 (ip), vehicle: saline with Tween-80) was 89 % of control and 93 % of control, the T/C (endpoint: mean survival time, dose: 200.0 mg/kg/injection, schedule: Q01DX009 (ip), vehicle: saline with Tween-80) was 89 % of control and the T/C (endpoint: mean survival time, dose: 400.0 mg/kg/injection, schedule: Q01DX009 (ip), vehicle: saline with Tween-80) was 87 % of control and 91 % of control.
`Cn1c(CC#N)c(C[N+](C)(C)C)c2ccccc21` was tested, and the T/C (endpoint: mean survival time, dose: 2.5 mg/kg/injection, schedule: Q01DX009 (ip), vehicle: saline with Tween-80) was 97 % of control, the T/C (endpoint: mean survival time, dose: 5.0 mg/kg/injection, schedule: Q01DX001 (ip), vehicle: saline with Tween-80) was 102 % of control and the T/C (endpoint: mean survival time, dose: 5.0 mg/kg/injection, schedule: Q01DX009 (ip), vehicle: saline with Tween-80) was 97 % of control. The T/C (endpoint: mean survival time, dose: 10.0 mg/kg/injection, schedule: Q01DX001 (ip), vehicle: saline with Tween-80) was 96 % of control.
In the case of `CN(C)C(=O)c1cc2ccccc2n1C`, the T/C (endpoint: mean survival time, dose: 100.0 mg/kg/injection, schedule: Q01DX001 (ip), vehicle: saline with Tween-80) is reported as 97 % of control, the T/C (endpoint: mean survival time, dose: 200.0 mg/kg/injection, schedule: Q01DX001 (ip), vehicle: saline with Tween-80) is reported as 98 % of control and the T/C (endpoint: mean survival time, dose: 400.0 mg/kg/injection, schedule: Q01DX001 (ip), vehicle: saline with Tween-80) is reported as 94 % of control.
With `Cc1ccc(/C=C2\CC(C)(C)c3ccccc3C2=O)cc1` the T/C (endpoint: mean survival time, dose: 100.0 mg/kg/injection, schedule: Q01DX009 (ip), vehicle: saline) was 96 % of control, the T/C (endpoint: mean survival time, dose: 100.0 mg/kg/injection, schedule: Q04DX003 (ip), vehicle: other) was 104 % of control and the T/C (endpoint: mean survival time, dose: 200.0 mg/kg/injection, schedule: Q01DX009 (ip), vehicle: saline) was 94 % of control. For the same compound, the T/C (endpoint: mean survival time, dose: 200.0 mg/kg/injection, schedule: Q04DX003 (ip), vehicle: other) was 100 % of control, the T/C (endpoint: mean survival time, dose: 400.0 mg/kg/injection, schedule: Q01DX009 (ip), vehicle: saline) was 94 % of control and the T/C (endpoint: mean survival time, dose: 400.0 mg/kg/injection, schedule: Q04DX003 (ip), vehicle: other) was 105 % of control.
In the case of `Cc1ccc2c(ccc3nc(N)nc(N)c32)c1`, the T/C (endpoint: mean survival time, dose: 5.0 mg/kg/injection, schedule: Q01DX001 (ip), vehicle: saline) is reported as 100 % of control, the T/C (endpoint: mean survival time, dose: 10.0 mg/kg/injection, schedule: Q01DX001 (ip), vehicle: saline) is reported as 89 % of control and the T/C (endpoint: mean survival time, dose: 20.0 mg/kg/injection, schedule: Q01DX001 (ip), vehicle: saline) is reported as 95 % of control. For the same compound, the T/C (endpoint: mean survival time, dose: 40.0 mg/kg/injection, schedule: Q01DX001 (ip), vehicle: saline) was 95 % of control.
`CN(C)CCCN=Cc1cc([N+](=O)[O-])ccc1O.CN(C)CCCN=Cc1cc([N+](=O)[O-])ccc1O.[Ni+2]` was tested, and the T/C (endpoint: mean survival time, dose: 6.25 mg/kg/injection, schedule: Q04DX002 (ip), vehicle: saline with Tween-80) was 91 % of control, the T/C (endpoint: mean survival time, dose: 12.5 mg/kg/injection, schedule: Q04DX002 (ip), vehicle: saline with Tween-80) was 91 % of control and the T/C (endpoint: mean survival time, dose: 50.0 mg/kg/injection, schedule: Q04DX002 (ip), vehicle: saline with Tween-80) was 93 % of control.
For `O=c1oc2ccccc2c2ccccc12`, the T/C (endpoint: mean survival time, dose: 100.0 mg/kg/injection, schedule: Q04DX002 (ip), vehicle: saline with Tween-80) was 108 % of control, the T/C (endpoint: mean survival time, dose: 200.0 mg/kg/injection, schedule: Q04DX002 (ip), vehicle: saline with Tween-80) was 101 % of control and the T/C (endpoint: mean survival time, dose: 400.0 mg/kg/injection, schedule: Q04DX002 (ip), vehicle: saline with Tween-80) was 101 % of control.
